Measurements from patent US12071424B2, “IRE1 small molecule inhibitors” (Cornell University, priority 2017, dated 2024).

Legend:
IRE1a [1] = biological target: T1, IRE1a (Homo sapiens, UniProt O75460); experiment: In vitro FRET assay (IRE1a cleavage of XBP1 RNA probe); format: biochemical; conditions: 2 nM SignalChem IRE1a, tested as Formic Acid Salt (37: HCl Salt)
T1 construct: purchased SignalChem
Summary of the method: Human

IRE1a [2] = experiment: IRE1a Endoribonuclease Nanoluciferase Assay (XBP1 luciferase reporter in 293T cells); format: cell-based, human; conditions: ER stressor, tested as Formic Acid Salt (37: HCl Salt)
Summary of the method: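 293T cells transiently transfected with a PGK-Luc2-P2A-XBP1u-Nanoluciferase-Pest reporter, replated after 6 h, then treated next day with ER stressors ± inhibitors. After lysis, firefly luminescence then nanoluciferase luminescence read sequentially (1000 ms integration each).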

T1 sequence (O75460 19-977): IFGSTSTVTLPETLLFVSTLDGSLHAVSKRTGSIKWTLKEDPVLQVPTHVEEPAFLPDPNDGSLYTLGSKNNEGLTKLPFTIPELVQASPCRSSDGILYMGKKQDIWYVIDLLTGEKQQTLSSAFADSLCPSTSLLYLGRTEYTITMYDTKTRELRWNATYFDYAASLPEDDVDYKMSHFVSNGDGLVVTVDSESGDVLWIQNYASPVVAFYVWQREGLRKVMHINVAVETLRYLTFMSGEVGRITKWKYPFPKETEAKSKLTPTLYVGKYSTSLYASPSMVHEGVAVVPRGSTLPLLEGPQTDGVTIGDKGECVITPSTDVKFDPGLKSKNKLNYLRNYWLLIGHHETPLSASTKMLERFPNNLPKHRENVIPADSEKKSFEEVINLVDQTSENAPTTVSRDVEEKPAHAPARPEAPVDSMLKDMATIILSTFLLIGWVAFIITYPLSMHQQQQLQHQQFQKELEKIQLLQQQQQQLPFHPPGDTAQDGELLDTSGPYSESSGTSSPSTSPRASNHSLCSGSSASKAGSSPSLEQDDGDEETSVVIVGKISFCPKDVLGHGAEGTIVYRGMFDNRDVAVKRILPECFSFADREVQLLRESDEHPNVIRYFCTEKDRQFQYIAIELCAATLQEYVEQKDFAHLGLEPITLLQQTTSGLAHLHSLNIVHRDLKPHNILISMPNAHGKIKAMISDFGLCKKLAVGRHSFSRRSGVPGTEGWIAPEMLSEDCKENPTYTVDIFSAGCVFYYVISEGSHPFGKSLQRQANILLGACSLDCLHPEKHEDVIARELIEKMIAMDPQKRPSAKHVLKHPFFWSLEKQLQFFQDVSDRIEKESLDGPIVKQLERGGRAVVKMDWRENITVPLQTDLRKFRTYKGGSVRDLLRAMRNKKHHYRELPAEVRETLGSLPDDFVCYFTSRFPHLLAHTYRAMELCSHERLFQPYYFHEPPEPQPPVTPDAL

| IC50 (IRE1a [1]) [nM] | EC50 (IRE1a [2]; Homo sapiens, HEK-293T) [nM] | EC50 (IRE1a [2]) [nM] | SMILES |
| --- | --- | --- | --- |
| ≤ 5 | ≤ 5 |  | CCc1cc(-c2ccc(NS(=O)(=O)c3ccccc3Cl)nn2)cc2cnc(N[C@H]3CC[C@H](NC)CC3)nc12 [Compound 61, 2-chloro-N-(6-(8-ethyl-2-(((1r,4r)-4-(methylamino)cyclohexyl)amino)quinazolin-6-yl)pyridazin-3-yl)benzene-sulfonamide] |
| ≤ 5 | ≤ 5 |  | Cc1nc(NS(=O)(=O)c2ccccc2Cl)ccc1-c1cc(C(C)(F)F)c2nc(N[C@H]3CC[C@H](N(C)C)CC3)ncc2c1 [Compound 131] |
| ≤ 5 | ≤ 5 |  | NC12CCC(Nc3ncc4cc(-c5ccc(NS(=O)(=O)c6ccccc6Cl)c(F)c5)ccc4n3)(CC1)CC2 [Compound 81, N-(4-(2-((4-aminobicyclo[2.2.2]octan-1-yl)amino)quinazolin-6-yl)-2 fluorophenyl)-2-chlorobenzene-sulfonamide] |
| ≤ 5 | 5 to 50 |  | CN[C@H]1CC[C@H](Nc2ncc3cc(-c4cc(F)c(NS(=O)(=O)c5ccccc5Cl)nc4OC)ccc3n2)CC1 [Compound 150, 2-chloro-N-(3-fluoro-6-methoxy-5-(2-(((1r,4r)-4-(methylamino)cyclohexyl)amino)quinazolin-6-yl)pyridin-2-yl)benzenesulfonamide] |
| ≤ 5 | ≤ 5 |  | CCc1cc(-c2ccc(NS(=O)(=O)c3ccccc3Cl)nc2OC)cc2cnc(N[C@H]3CC[C@H](NC)CC3)nc12 [Compound 116, 2-chloro-N-(5-(8-ethyl-2-(((1r,4r)-4-(methylamino)cyclohexyl)amino)quinazolin-6-yl)-6-methoxypyridin-2-yl)benzenesulfonamide] |
| ≤ 5 | ≤ 5 |  | CCc1cc(-c2cc(NS(=O)(=O)c3ccccc3Cl)no2)cc2cnc(N[C@H]3CC[C@H](N)CC3)nc12 [Compound 44, N-(5-(2-(((1r,4r)-4-aminocyclohexyl)amino)-8-ethylquinazolin-6-yl)isoxazol-3-yl)-2-chlorobenzene-sulfonamide] |
| ≤ 5 | 100 to 10000 |  | N[C@H]1CC2C[C@@H](Nc3ncc4cc(-c5ccc(NS(=O)(=O)c6ccccc6Cl)c(F)c5)ccc4n3)CC2C1 (stereo partly shown) [Compound 85, N-(4-(2-(((2s,5s)-5-aminooctahydro-pentalen-2-yl)amino)quinazolin-6-yl)-2-fluorophenyl)-2-chlorobenzene-sulfonamide] |
| ≤ 5 | 5 to 50 |  | CCc1cc(-c2ccc(NS(=O)(=O)c3ccccc3Cl)c(F)c2)cc2cnc(N[C@@H]3CC[C@H](N)C3)nc12 [Compound 79, N-(4-(2-(((1R,3S)-3-aminocyclopentyl)amino)-8-ethylquinazolin-6-yl)-2-fluorophenyl)-2-chlorobenzene-sulfonamide] |
| ≤ 5 | ≤ 5 |  | COc1nc(NS(=O)(=O)c2ccccc2Cl)ccc1-c1cc2cnc(N[C@H]3CC[C@H](N(C)C)CC3)nc2cc1C [Compound 108, 2-chloro-N-(5-(2-(((1r,4r)-4-(dimethylamino)cyclohexyl)amino)-7-methylquinazolin-6-yl)-6-methoxypyridin-2-yl)benzenesulfonamide] |
| ≤ 5 | ≤ 5 |  | CCc1cc(-c2ccc(NS(=O)(=O)c3ccccc3Cl)c(F)c2)cc2cnc(N[C@H]3CC[C@H](NC)CC3)nc12 [Compound 60, 2-chloro-N-(4-(8-ethyl-2-(((1r,4r)-4-(methylamino)cyclohexyl)amino)quinazolin-6-yl)-2-fluorophenyl) benzene sulfonamide] |
| ≤ 5 | ≤ 5 |  | CCc1cc(-c2ccc(NS(=O)(=O)c3ccccc3C)nc2OC)cc2cnc(N[C@H]3CC[C@H](N(C)C)CC3)nc12 [Compound 119, N-(5-(2-(((1r,4r)-4-(dimethylamino)cyclohexyl)amino)-8-ethylquinazolin-6-yl)-6-methoxypyridin-2-yl)-2-methylbenzenesulfonamide] |
| ≤ 5 | ≤ 5 |  | CCc1cc(-c2ccc(NS(=O)(=O)c3ccccc3Cl)nn2)cc2cnc(N[C@H]3CC[C@H](N(C)C)CC3)nc12 [Compound 64] |
| ≤ 5 |  | 5 to 50 | CCc1cc(-c2ccc(NS(=O)(=O)c3ccccc3Cl)c(F)c2)cc2cnc(N[C@H]3CC4C[C@H](N)CC4C3)nc12 (stereo partly shown) [Compound 82, N-(4-(2-((4-5-aminooctahydro-pentalen-2-yl)amino)-8-ethylquinazolin-6-yl)-2-fluorophenyl)-2-chlorobenzene-sulfonamide] |
| 5 to 50 | 50 to 100 |  | CCc1cc(-c2ccc(NS(=O)(=O)c3ccccc3Cl)c(F)c2)cc2cnc(N[C@H]3CC[C@H](NC(C)=O)CC3)nc12 [Compound 59] |
| ≤ 5 | 5 to 50 |  | CCc1cc(-c2ccc(NS(=O)(=O)c3ccccc3Cl)c(F)c2)cc2cnc(N[C@H]3CC4C[C@@H](N)CC4C3)nc12 (stereo partly shown) [Compound 84] |
| ≤ 5 | 50 to 100 |  | NC12CCC(Nc3ncc4cc(-c5ccc(NS(=O)(=O)c6ccccc6Cl)c(F)c5)ccc4n3)(CC1)C2 [Compound 86] |
| ≤ 5 | ≤ 5 |  | CCc1cc(-c2ccc(NS(=O)(=O)c3ccccc3Cl)nc2C)cc2cnc(N[C@H]3CC[C@H](N(C)CC)CC3)nc12 [Compound 125, 2-chloro-N-(5-(8-ethyl-2-(((1r,4r)-4-(ethyl(methyl)amino)cyclohexyl)amino)quinazolin-6-yl)-6-methylpyridin-2-yl)benzenesulfonamide] |
| ≤ 5 | 50 to 100 |  | Cc1nc(NS(=O)(=O)c2ccccc2Cl)ncc1-c1ccc2nc(N[C@H]3CC[C@H](N)CC3)ncc2c1 [Compound 68, N-(5-(2-(((1r,4r)-4-aminocyclohexyl)amino)quinazolin-6-yl)-4-methylpyrimidin-2-yl)-2-chlorobenzene-sulfonamide] |
| ≤ 5 | ≤ 5 |  | CCc1cc(-c2ccc(NS(=O)(=O)c3ccccc3Cl)c(F)c2)cc2cnc(N[C@@H]3CC[C@@H](N)C3)nc12 [Compound 78, N-(4-(2-(((1R,3R)-3-aminocyclopentyl)amino)-8-ethylquinazolin-6-yl)-2-fluorophenyl)-2-chlorobenzene-sulfonamide] |
| ≤ 5 | ≤ 5 |  | N[C@H]1CC[C@H](Nc2ncc3cc(-c4ccc(NS(=O)(=O)c5ccccc5Cl)c(F)c4F)ccc3n2)CC1 [Compound 56, N-(4-(2-(((1r,4r)-4-aminocyclohexyl)amino)quinazolin-6-yl)-2,3-difluorophenyl)-chlorobenzene-sulfonamide] |
| ≤ 5 | ≤ 5 |  | COc1nc(NS(=O)(=O)c2ccccc2Cl)c(F)cc1-c1cc(C)c2nc(N[C@H]3CC[C@H](N(C)C)CC3)ncc2c1 [Compound 145, 2-chloro-N-(5-(2-(((1r,4r)-4-(dimethylamino)cyclohexyl)amino)-8-methylquinazolin-6-yl)-3-fluoro-6-methoxypyridin-2-yl)benzenesulfonamide] |
| ≤ 5 | 5 to 50 |  | N[C@@H]1CC[C@@H](Nc2ncc3cc(-c4ccc(NS(=O)(=O)c5ccccc5Cl)c(F)c4)ccc3n2)C1 [Compound 77, N-(4-(2-(((1R,3R)-3-aminocyclopentyl)amino)quinazolin-6-yl)-2-fluorophenyl)-2-chlorobenzene-sulfonamide] |
| ≤ 5 | ≤ 5 |  | CCc1cc(-c2ccc(NS(=O)(=O)c3ccccc3Cl)c(F)c2)cc2cnc(N[C@H]3CC[C@H](N4CCCC4)CC3)nc12 [Compound 88, 2-chloro-N-(4-(8-ethyl-2-(((1r,4r)-4-(pyrrolidin-1-yl)cyclohexyl)amino)quinazolin-6-yl)-2-fluorophenyl) benzenesulfon-amide] |
| ≤ 5 | ≤ 5 |  | CCc1c(F)c(-c2cc(F)c(NS(=O)(=O)c3ccccc3Cl)nc2C)cc2cnc(N[C@H]3CC[C@H](N(C)C)CC3)nc12 [Compound 162, 2-chloro-N-(5-(2-(((1r,4r)-4-(dimethylamino)cyclohexyl)amino)-8-ethyl-7-fluoroquinazolin-6-yl)-3-fluoro-6-methylpyridin-2-yl)benzenesulfonamide] |
| ≤ 5 | ≤ 5 |  | CCc1cc(-c2cnc(NS(=O)(=O)c3ccccc3Cl)c(F)c2)cc2cnc(N[C@H]3CC[C@H](N(C)C)CC3)nc12 [Compound 95, 2-chloro-N-(5-(2-(((1r,4r)-4-(dimethylamino)cyclohexyl)amino)-8-ethylquinazolin-6-yl)-3-fluoropyridin-2-yl)benzenesulfonamide] |
| ≤ 5 | 5 to 50 |  | Cc1cc2nc(N[C@H]3CC[C@H](N)CC3)ncc2cc1-c1ccc(NS(=O)(=O)c2ccccc2Cl)c(F)c1 [Compound 90, N-(4-(2-(((1r,4r)-4-aminocyclohexyl)amino)-7-methylquinazolin-6-yl)-2-fluorophenyl)-2-chlorobenzene-sulfonamide] |
| ≤ 5 | ≤ 5 |  | CCc1cc(-c2ccc(NS(=O)(=O)c3cccc(F)c3Cl)nc2C)cc2cnc(N[C@H]3CC[C@H](N(C)C)CC3)nc12 [Compound 158, 2-chloro-N-(5-(2-(((1r,4r)-4-(dimethylamino)cyclohexyl)amino)-8-ethylquinazolin-6-yl)-6-methylpyridin-2-yl)-3-fluorobenzenesulfonamide] |
| ≤ 5 | 5 to 50 |  | O=S(=O)(Nc1ccc(-c2ccc3nc(N[C@H]4CCCNC4)ncc3c2)cc1F)c1ccccc1Cl [Compound 76, (S)-2-chloro-N-(2-fluoro-4-(2-(piperdin-3-ylamino)quinazolin-6-yl)phenyl) benzenesulfon-amide] |
| ≤ 5 | 5 to 50 |  | CCCc1cc(-c2cc(NS(=O)(=O)c3ccccc3Cl)nn2C)cc2cnc(N[C@H]3CC[C@H](N)CC3)nc12 [Compound 47, N-(5-(2-(((1r,4r)-4-aminocyclohexyl)amino)-8-propylquinazolin-6-yl)-1-methyl-1H-pyrazol-3-yl)-2-chlorobenzene-sulfonamide] |
